Assay results reported in patent US20110245231A1, “ACTIVE SUBSTANCE AND PHARMACEUTICAL COMPOSITION FOR TREATING ALCOHOL DEPENDENCE, AND A METHOD FOR OBTAINING AND THE USE OF SAID ACTIVE SUBSTANCE” (Alla Chem, LLC, priority 2009, published 2011).

System: mice with formed alcohol dependence (male mice of SHK line)
Experiment: Alcohol-deprivation effect (ADE): voluntary consumption of 10% alcohol in a 90-minute test before and after 4-day deprivation
Assay type: in vivo
Details: for Alcohol consumption before deprivation: baseline test before deprivation and dosing; for ADE (ADE index): index >0.5 = alcohol dependence
Experimental: Alcohol dependence is determined by the increasing of alcohol consumption induced by short-time deprivation of alcohol. The occurrence and the level of this increasing is a criterion for self-control loss during the period of heavy drinking [Maisky A. I., Salimov R. M. Procedural guidelines for investigation of anti-alcohol medications. The guidebook for experimental (preclinical) investigation of novel pharmacological substances. Ed. Harbiev R. U., publ. “Medicine”, Moscow, 2005, p. 342-356].
For overcoming of the possible first-use gustatory rejection of alcohol solution during the first 6 days of the experiment male mice of SHK line were not given water, they had access only to alcohol solution of increasing concentration (3%—on the first and second days, 6%—on the third and fourth days and 10%—on the fifth and sixth days) [Mc Kinzie et al., Alcohol Clin Exp Res. 1998, 22(7):1584-90]. At that, free access to food was provided. During the next 2 months the animals had free access to pure water, food and 10% solution of alcohol.
For quantitative estimation of alcohol motivation the amount of voluntary alcohol (10% solution) consumption during the 90-minute's test after 4-day's alcohol deprivation was compared with the amount of alcohol consumed during the test carried out before 4-day's alcohol deprivation (alcohol-deprivation effect, ADE). ADE index was calculated as a ratio of alcohol consumption after its withdrawal (grams of pure alcohol per kilogram of body mass) to the total alcohol consumption before and after its withdrawal. The existence of alcohol dependence is determined by the value of ADE index exceeding 0.5, a lower meaning of ADE index corresponds to the absence of alcohol dependence.
At the end of 2-month's period of free access to water and alcohol the above estimation of ADE was carried out, and for further experiments the animals with ADE index exceeding 0.5 were selected. These mice, which had practically identical ADE values, were divided into groups of 9-12 animals.
Sodium γ-hydroxybutyrate was used as a reference drug in the experiments with male mice of SHK line.
Peroral administration once a day for 4 days running

[1] = dose 0.5 mg/kg peroral once a day for 4 days during deprivation
[2] = dose 3.0 mg/kg peroral once a day for 4 days during deprivation
[3] = dose 10.0 mg/kg peroral once a day for 4 days during deprivation
[4] = dose 10.0 mg/kg peroral once a day for 4 days
[5] = dose 20.0 mg/kg peroral once a day for 4 days during deprivation
[6] = dose 150 mg/kg peroral once a day for 4 days during deprivation
[7] = dose 2.0 mg/kg peroral once a day for 4 days during deprivation

Br.CCSc1nc2ccccc2[nH]1 [1.1, 2-ethylsulfanyl-1H-benzimidazole hydrobromide]
alcohol-deprivation effect (increasing of alcohol consumption after 4-days' deprivation), observed or not (0.5 mg/kg dose): observed
post-deprivation increasing of alcohol consumption, observed or not (3-20 mg/kg): not observed
Alcohol consumption after deprivation [1]: 4.36 ± 1.10 g/kg
Alcohol consumption before deprivation [1]: 1.96 ± 0.75 g/kg
ADE (ADE index) (dose 0.5 mg/kg peroral once a day for 4 days): 0.65 ± 0.07
Alcohol consumption after deprivation [2]: 2.60 ± 1.10 g/kg
Alcohol consumption before deprivation [2]: 3.49 ± 0.75 g/kg
ADE (ADE index) (dose 3.0 mg/kg peroral once a day for 4 days): 0.46 ± 0.07
Alcohol consumption after deprivation [3]: 1.59 ± 1.10 g/kg
Alcohol consumption before deprivation [3]: 2.79 ± 0.75 g/kg
ADE (ADE index) [4]: 0.39 ± 0.07
Alcohol consumption after deprivation [5]: 1.55 ± 1.10 g/kg
Alcohol consumption before deprivation [5]: 2.56 ± 0.75 g/kg
ADE (ADE index) (dose 20.0 mg/kg peroral once a day for 4 days): 0.31 ± 0.07
dose at which the decrease of alcohol-deprivation effect appears (dose-dependent, more noticeable at 20 mg/kg): 3 mg/kg

O=C([O-])CCCO.[Na+] [SHB, sodium γ-hydroxybutyrate]
Alcohol consumption after deprivation [6]: 1.49 ± 1.10 g/kg
Alcohol consumption before deprivation [6]: 2.36 ± 0.75 g/kg
ADE (ADE index) (dose 150 mg/kg peroral once a day for 4 days): 0.45 ± 0.07
effect on alcohol-deprivation effect, in words (reference drug, 150 mg/kg (Table 3)): significant decreasing of alcohol-deprivation effect

Cl.c1c(C2CCCCC2)cc2c3c(n4c2c1NCC4)CCCC3 [2.2, 5-cyclohexyl-2,3,7,8,9,10-hexahydro-1H-pyrazino[3,2,1-jk]carbazole hydrochloride]
alcohol-deprivation effect (increasing of alcohol consumption after 4-days' deprivation), observed or not (2 and 10 mg/kg doses): observed
Alcohol consumption after deprivation [7]: 3.42 ± 1.16 g/kg
Alcohol consumption before deprivation [7]: 2.61 ± 0.79 g/kg
ADE (ADE index) (dose 2.0 mg/kg peroral once a day for 4 days): 0.58 ± 0.08
Alcohol consumption after deprivation [3]: 5.05 ± 1.10 g/kg
Alcohol consumption before deprivation [3]: 2.61 ± 0.75 g/kg
ADE (ADE index) [4]: 0.61 ± 0.07
influence on ADE, in words (used alone in doses of 2-10 mg/kg): does not influence ADE
